Common to all, as to assay type: cell-based
Test [1] concerns HCT-116 cells. As to the kind of experiment: MTT cytotoxicity assay, HCT-116. The following applies: Homo sapiens, incubation time 24 h, mean ± SD (n = 3). (In general: Formazan colour is commonly taken as a measure of viable cells.)
Test [2] concerns Normal Human Dermal Fibroblasts-Neonatal (NHDF-Neo). As to the kind of experiment: MTT cytotoxicity assay, NHDF-Neo. The following applies: incubation time 24 h, mean ± SD (n = 3). The method, then:
(§1) In vitro cytotoxicity studies of the obtained building blocks and glycoconjugates were carried out on cell lines characterized by the high expression of GLUT transporters and the strongly changed glucose metabolism (strong Warburg effect). […] Cytotoxicity was evaluated using the MTT assay.
[…] […] The culture media were purchased from EuroClone and HyClone. Fetal bovine serum (FBS) was delivered by EURx, Poland, and Antibiotic Antimycotic Solution (100×) by Sigma-Aldrich, Germany. The cells were cultured under standard conditions at 37 °C in a humidified atmosphere at 5% CO2.
(§2) The viability of the cells was determined using an MTT (3-[4,5–dimethylthiazol-2-yl]-2,5-diphenyltetrazolium bromide) test (Sigma-Aldrich). Stock solutions of tested compounds were prepared in DMSO and diluted with the appropriate volumes of the growth medium directly before the experiment. […] The cell cultures were incubated for 24 h at 37 °C in a humidified atmosphere of 5% CO2. Then, the culture medium was removed, replaced with the solution of the tested compounds in medium with varying concentrations, and incubated for further 24 h or 72 h. After that, the medium was removed, and the MTT solution (50 µL, 0.5 mg/mL in PBS) was added. After 3 h of incubation, the MTT solution was removed, and the precipitated formazan was dissolved in DMSO. Finally, the absorbance at the 570 nm wavelength was measured spectrophotometrically with the plate reader. The experiment was conducted in at least three independent iterations with four technical repetitions. The IC50 values were calculated using CalcuSyn software (version 2.0, Biosoft, Cambridge, UK).

Test [3] has as its system MCF-7 cells. As to the kind of experiment: MTT cytotoxicity assay, MCF-7. The note with it: Homo sapiens, MCF7, incubation time 72 h, mean ± SD (n = 3). The protocol:
as §1
The human cell line MCF-7 was obtained from collections at the Maria Sklodowska-Curie Memorial Cancer Center and Institute of Oncology, branch in Gliwice, Poland. […] The culture media were purchased from EuroClone and HyClone. Fetal bovine serum (FBS) was delivered by EURx, Poland, and Antibiotic Antimycotic Solution (100×) by Sigma-Aldrich, Germany. The cells were cultured under standard conditions at 37 °C in a humidified atmosphere at 5% CO2.
as §2

The test system of test [4] is Normal Human Dermal Fibroblasts-Neonatal (NHDF-Neo). Briefly: Influence of metal ions on cellular proliferation (MTT with Cu2+), NHDF-Neo. The note with it: MTT assay, 24 h, addition of copper acetate at 100 µM. The protocol:
(§3) Cultured cancer cells, in contrast to in vivo environment, are characterized by a low copper level. Therefore, additional experiments were carried out for compounds whose expected mechanism of action is based on the chelation of metal ions. The antiproliferative activities of glycoconjugates 67, 68, 70, and 71 were tested in the presence of Cu^2+ ions. The effect of the interaction of glycoconjugate complexes with metal ions on cell proliferation was measured by adding a copper salt solution to the growth medium and observing the rate of cell growth compared to copper-untreated cells.
(§4) During the appropriate experiments, the cells (MCF-7, HCT-116, and NHDF-Neo) were treated with solutions of glycoconjugate 67, 68, 70, or 71 in medium culture, supplemented with 100 µM copper acetate, and then their proliferation was measured by the MTT assay. The control system was cells suspended in medium supplemented with DMSO in the amount used to dissolve the compounds and the addition of the same amount of copper. […] The highest cytotoxic activity of the compounds was observed against the MCF-7 cell line. […] This confirmed the strong sensitivity of breast cancer cells to 8-HQ derivatives.
(§5) The cells were seeded into 96-well plates at concentration 1 × 10^4 (HCT 116, NHDF-Neo) or 5 × 10^3 (MCF-7) per well. The cell cultures were incubated for 24 h at 37 °C in a humidified atmosphere of 5% CO2. Then, the culture medium was removed, replaced with the solution of the tested compounds in medium with varying concentrations. Additionally, 100 µM solution of Cu(CH3COO)2 was added into wells with tested compounds. After 24 h or 72 h incubation, the MTT assay was performed.

In test [5] the test system is HCT-116 cells. Briefly: Influence of metal ions on cellular proliferation (MTT with Cu2+), HCT-116. The note with it: Homo sapiens, MTT assay, 24 h, addition of copper acetate at 100 µM. The method, then: as §3, §4, §5
Test [6] has as its system MCF-7 cells. As to the kind of experiment: Influence of metal ions on cellular proliferation (MTT with Cu2+), MCF-7. The note with it: Homo sapiens, MCF7; MTT assay, 72 h, addition of copper acetate at 100 µM. The protocol:
as §3, §4
It can be seen that the greatest differences in cell survival occurred in the case of MCF-7 cell lines. A significant decrease in the proliferation of MCF-7 cells was observed after treatment with glycoconjugates at a concentration of 50 µM in the presence of Cu^2+ (cell viability 10–28%), compared to experiments with glycoconjugates alone. In this case, the cytotoxicity of glycoconjugates increased about three-fold in the presence of Cu(II) ions. […] For HCT-116 and NHDF-Neo cell lines, only slight differences in cell viability were observed after treatment with free compounds and when […] ions were added.
as §5

Broadly, the IC50 is the concentration at which inhibition is half-maximal. Low readings indicate greater potency in that assay, high ones weaker potency in that assay.

`Cc1ccc2cccc(O)c2n1` [Compound 2Me8HQ, 8-hydroxyquinaldine, reference compound] registered an IC50 in test [1] of over 800 µM.
Turning to `Oc1cccc2cccnc12` [Compound 8HQ, 8-hydroxyquinoline], the values for the IC50 in test [2], in test [3] and in test [1] were over 800 µM, 0.24 ± 0.01 µM and over 800 µM, respectively.
Regarding `CC(=O)OC[C@H]1O[C@@H](Sc2ccc(NC(=O)CN=[N+]=[N-])cn2)[C@H](OC(C)=O)[C@@H](OC(C)=O)[C@@H]1OC(C)=O` [Compound 33, (5-azidoacetamide-2-pyridyl) 2,3,4,6-tetra-O-acetyl-1-thio-β-D-glucopyranoside], the IC50 in test [2] came to 11.2 ± 0.31 µM; in test [3] it was 6.39 ± 0.07 µM; in test [1], 13.39 ± 0.1 µM.
Take `CC(=O)OC[C@H]1O[C@@H](Sc2ccc(NC(=O)CN=[N+]=[N-])cn2)[C@H](OC(C)=O)[C@@H](OC(C)=O)[C@H]1OC(C)=O` [Compound 34, (5-azidoacetamide-2-pyridyl) 2,3,4,6-tetra-O-acetyl-1-thio-β-D-galactopyranoside]: the IC50 worked out at 383 ± 4.23 µM in test [3] and 541.4 ± 3.73 µM in test [1].
The matching figures for `[N-]=[N+]=NCC(=O)Nc1ccc(S[C@@H]2O[C@H](CO)[C@@H](O)[C@H](O)[C@H]2O)nc1` [Compound 35, (5-azidoacetamide-2-pyridyl) 1-thio-β-D-glucopyranoside]: over 800 µM and over 800 µM.
With `C#CCOC(=O)Nc1ccc(S[C@@H]2O[C@H](COC(C)=O)[C@@H](OC(C)=O)[C@H](OC(C)=O)[C@H]2OC(C)=O)nc1` [Compound 36, (5-(((prop-2-yn-1-yloxy)carbonyl)amino)-2-pyridyl) 2,3,4,6-tetra-O-acetyl-1-thio-β-D-glucopyranoside], the results for the IC50 in test [2], in test [3] and in test [1] were 41.7 ± 3.4 µM, 38.3 ± 2.44 µM and 125 ± 8.98 µM, respectively.
For `C#CCOC(=O)Nc1ccc(S[C@@H]2O[C@H](COC(C)=O)[C@H](OC(C)=O)[C@H](OC(C)=O)[C@H]2OC(C)=O)nc1` [Compound 37], the figures for the IC50 in test [3] and in test [1] were 392 ± 5.29 µM and 456.7 ± 3.85 µM, respectively.
Taken in the same sequence, the figures for `C#CCOC(=O)Nc1ccc(S[C@@H]2O[C@H](CO)[C@@H](O)[C@H](O)[C@H]2O)nc1` [Compound 38] were over 800 µM and over 800 µM.
With `CC(=O)OC[C@H]1O[C@@H](SCc2cn(CCCOc3cccc4cccnc34)nn2)[C@H](OC(C)=O)[C@@H](OC(C)=O)[C@@H]1OC(C)=O` [Compound 59], the IC50 in test [2] is 229.1 ± 2.06 µM; in test [3], 153.3 ± 0.25 µM; in test [1], 173 ± 3.48 µM.
Take `CC(=O)OC[C@H]1O[C@@H](SCc2cn(CCCOc3cccc4cccnc34)nn2)[C@H](OC(C)=O)[C@@H](OC(C)=O)[C@H]1OC(C)=O` [Compound 60]: the IC50 is 421.2 ± 0.14 µM in test [2], 212 ± 3.46 µM in test [3] and 304.8 ± 1.34 µM in test [1].
Consider `CC(=O)OC[C@H]1O[C@@H](SCc2cn(CCCOc3cccc4ccc(C)nc34)nn2)[C@H](OC(C)=O)[C@@H](OC(C)=O)[C@@H]1OC(C)=O` [Compound 61], for which the figures for the IC50 in test [2], in test [3] and in test [1] were 260 ± 7.65 µM, 130.4 ± 0.2 µM and 108 ± 1.62 µM, respectively.
Turning to `CC(=O)OC[C@H]1O[C@@H](SCc2cn(CCCOc3cccc4ccc(C)nc34)nn2)[C@H](OC(C)=O)[C@@H](OC(C)=O)[C@H]1OC(C)=O` [Compound 62], the IC50 was 667.6 ± 6.43 µM in test [2], 244 ± 3.04 µM in test [3] and 324 ± 1.61 µM in test [1].
For the compound `OC[C@H]1O[C@@H](SCc2cn(CCCOc3cccc4cccnc34)nn2)[C@H](O)[C@@H](O)[C@@H]1O` [Compound 63], the half-maximal inhibitory concentration (IC50) in test [3] and in test [1] was over 800 µM in each case.
As to `Cc1ccc2cccc(OCCCn3cc(CS[C@@H]4O[C@H](CO)[C@@H](O)[C@H](O)[C@H]4O)nn3)c2n1` [Compound 65], the IC50 in test [3] and in test [1] was over 800 µM throughout.
Take `Cc1ccc2cccc(OCCCn3cc(CS[C@@H]4O[C@H](CO)[C@H](O)[C@H](O)[C@H]4O)nn3)c2n1` [Compound 66]: the IC50 in test [3] and in test [1] was over 800 µM in each case.
Turning to `CC(=O)OC[C@H]1O[C@@H](Sc2ccc(NC(=O)Cn3cc(COc4cccc5cccnc45)nn3)cn2)[C@H](OC(C)=O)[C@@H](OC(C)=O)[C@@H]1OC(C)=O` [Compound 67], the IC50 in test [2] was determined as 71.8 ± 6.7 µM; in test [4] it was 71.4 ± 1.35 µM; in test [3], 69.7 ± 3.5 µM; in test [5], 74.5 ± 0.16 µM; in test [1], 146 ± 3.49 µM; in test [6] it was 28.9 ± 1.52 µM.
`CC(=O)OC[C@H]1O[C@@H](Sc2ccc(NC(=O)Cn3cc(COc4cccc5cccnc45)nn3)cn2)[C@H](OC(C)=O)[C@@H](OC(C)=O)[C@H]1OC(C)=O` [Compound 68]: the IC50 in test [2] amounted to 111 ± 2.78 µM; in test [4] it was 83.6 ± 3.03 µM; in test [3] it was 96.3 ± 5.99 µM; in test [5], 96.01 ± 0.59 µM; in test [1], 130 ± 1.31 µM; in test [6], 23.8 ± 0.48 µM.
`O=C(Cn1cc(COc2cccc3cccnc23)nn1)Nc1ccc(S[C@@H]2O[C@H](CO)[C@@H](O)[C@H](O)[C@H]2O)nc1` [Compound 69]: the IC50 was 163.81 ± 0.01 µM in test [2], 144 ± 2.68 µM in test [3] and 210.4 ± 0.55 µM in test [1].
In the case of `CC(=O)OC[C@H]1O[C@@H](Sc2ccc(NC(=O)OCc3cn(CCCOc4cccc5cccnc45)nn3)cn2)[C@H](OC(C)=O)[C@@H](OC(C)=O)[C@@H]1OC(C)=O` [Compound 70], the IC50 in test [2] was found to be 64 ± 5.34 µM; in test [4] it was 68.4 ± 1.11 µM; in test [3], 67.5 ± 1.58 µM; in test [5], 73.9 ± 2.99 µM; in test [1] it was 63.5 ± 2.37 µM; in test [6] it was 25.9 ± 1.76 µM.
Regarding `CC(=O)OC[C@H]1O[C@@H](Sc2ccc(NC(=O)OCc3cn(CCCOc4cccc5cccnc45)nn3)cn2)[C@H](OC(C)=O)[C@@H](OC(C)=O)[C@H]1OC(C)=O` [Compound 71], the IC50 is 75.26 ± 0.38 µM in test [2]; 69.3 ± 2.9 µM in test [4]; 68.3 ± 3.68 µM in test [3]; 83 ± 1.37 µM in test [5]; 90.68 ± 0.52 µM in test [1]; 20.5 ± 1.55 µM in test [6].
With `O=C(Nc1ccc(S[C@@H]2O[C@H](CO)[C@@H](O)[C@H](O)[C@H]2O)nc1)OCc1cn(CCCOc2cccc3cccnc23)nn1` [Compound 72], the figures for the IC50 in test [2], in test [3] and in test [1] were over 800 µM, 739.2 ± 3.79 µM and over 800 µM, respectively.
Consider `COc1cccc2c1C(=O)c1c(O)c3c(c(O)c1C2=O)C[C@@](O)(C(=O)CO)C[C@@H]3O[C@H]1C[C@H](N)[C@H](O)[C@H](C)O1` [Doxorubicin, reference compound], for which the values for the IC50 in test [2], in test [3] and in test [1] were over 20 µM, 0.67 ± 0.01 µM and 5.59 ± 0.14 µM, respectively.

The values above are taken from PMC7570910, “8-Hydroxyquinoline Glycoconjugates Containing Sulfur at the Sugar Anomeric Position—Synthesis and Preliminary Evaluation of Their Cytotoxicity” (Molecules, 2020).
